Test results published in article PMC12748989 (Nature Communications, 2025).

Experiments:
PBMC = conditions: 12.5 µM

SMILES	Average (percentage cell inhibition), Dmastoparan MDA-MB231 12.5uM (MDA-MB-231 cells) [%]	Average (percentage cell inhibition), Mastoparan PBMC (PBMC) [%]	Average 6.5uM (MDA-MB-231 cells) [%]
CC[C@H](C)[C@H](N)C(=O)N[C@@H](CC(N)=O)C(=O)N[C@@H](CC(C)C)C(=O)N[C@@H](CCCCN)C(=O)N[C@@H](CCC(N)=O)C(=O)N[C@@H](CC(C)C)C(=O)N[C@@H](C)C(=O)N[C@@H](C)C(=O)N[C@@H](CC(C)C)C(=O)N[C@@H](C)C(=O)N[C@@H](CCCCN)C(=O)N[C@@H](CCCCN)C(=O)N[C@H](C(=O)N[C@@H](CC(C)C)C(N)=O)[C@@H](C)CC [Q5]	41.3502	0.7115	–
CC[C@H](C)[C@H](N)C(=O)N[C@@H](CC(N)=O)C(=O)N[C@@H](CC(C)C)C(=O)N[C@@H](CCCCN)C(=O)N[C@@H](C)C(=O)N[C@@H](CC(C)C)C(=O)N[C@@H](C)C(=O)N[C@@H](C)C(=O)N[C@@H](CC(C)C)C(=O)N[C@@H](C)C(=O)N[C@@H](CCCCN)C(=O)N[C@@H](CCCCN)C(=O)N[C@@H](Cc1c[nH]cn1)C(=O)N[C@@H](CC(C)C)C(N)=O [H13]	24.5783	-0.416	–
CC[C@H](C)[C@H](N)C(=O)N[C@@H](CC(N)=O)C(=O)N[C@@H](CC(C)C)C(=O)N[C@@H](CCCCN)C(=O)N[C@@H](C)C(=O)N[C@@H](CC(C)C)C(=O)N[C@@H](C)C(=O)N[C@@H](C)C(=O)N[C@@H](CC(C)C)C(=O)N[C@@H](C)C(=O)N[C@@H](CCCCN)C(=O)N[C@@H](CCCCN)C(=O)N[C@H](C(=O)N[C@@H](CC(C)C)C(N)=O)C(C)C [V13]	38.0334	11.5837	–
CC[C@H](C)[C@H](N)C(=O)N[C@@H](CC(N)=O)C(=O)N[C@@H](CC(C)C)C(=O)N[C@@H](CCCCN)C(=O)N[C@@H](C)C(=O)N[C@@H](CC(C)C)C(=O)N[C@@H](C)C(=O)N[C@@H](C)C(=O)N[C@@H](CC(C)C)C(=O)N[C@@H](C)C(=O)NCC(=O)N[C@@H](CCCCN)C(=O)N[C@H](C(=O)N[C@@H](CC(C)C)C(N)=O)[C@@H](C)CC [G11]	29.778	15.1682	–
CC[C@H](C)[C@H](N)C(=O)N[C@@H](CC(N)=O)C(=O)N[C@@H](CC(C)C)C(=O)N[C@@H](CCCCN)C(=O)N[C@@H](C)C(=O)N[C@@H](CC(C)C)C(=O)N[C@@H](CC(N)=O)C(=O)N[C@@H](C)C(=O)N[C@@H](CC(C)C)C(=O)N[C@@H](C)C(=O)N[C@@H](CCCCN)C(=O)N[C@@H](CCCCN)C(=O)N[C@H](C(=O)N[C@@H](CC(C)C)C(N)=O)[C@@H](C)CC [N7]	28.8818	10.586	–
CC[C@H](C)[C@H](N)C(=O)N[C@@H](CC(N)=O)C(=O)N[C@@H](CC(C)C)C(=O)N[C@@H](CCCCN)C(=O)N[C@@H](C)C(=O)N[C@@H](CC(C)C)C(=O)N[C@@H](C)C(=O)N[C@@H](C)C(=O)N[C@@H](CC(C)C)C(=O)N[C@@H](Cc1c[nH]cn1)C(=O)N[C@@H](CCCCN)C(=O)N[C@@H](CCCCN)C(=O)N[C@H](C(=O)N[C@@H](CC(C)C)C(N)=O)[C@@H](C)CC [H10]	-5.968	-10.8779	–
CC[C@H](C)[C@H](N)C(=O)N[C@@H](CC(N)=O)C(=O)N[C@@H](CC(C)C)C(=O)N[C@@H](CCCCN)C(=O)N[C@@H](C)C(=O)N[C@@H](CC(C)C)C(=O)N[C@@H](C)C(=O)N[C@@H](C)C(=O)N[C@@H](CC(C)C)C(=O)N[C@@H](C)C(=O)N[C@@H](CCCCN)C(=O)N[C@@H](CCC(N)=O)C(=O)N[C@H](C(=O)N[C@@H](CC(C)C)C(N)=O)[C@@H](C)CC [Q12]	35.4495	-3.934	–
CC[C@H](C)[C@H](N)C(=O)N[C@@H](CC(N)=O)C(=O)N[C@@H](CC(C)C)C(=O)N[C@@H](CCCCN)C(=O)N[C@@H](C)C(=O)N[C@@H](CC(C)C)C(=O)N[C@@H](C)C(=O)N[C@@H](C)C(=O)N[C@@H](CC(C)C)C(=O)N[C@@H](C)C(=O)N1CCC[C@H]1C(=O)N[C@@H](CCCCN)C(=O)N[C@H](C(=O)N[C@@H](CC(C)C)C(N)=O)[C@@H](C)CC [P11]	-0.07814	-9.695	–
CC[C@H](C)[C@H](N)C(=O)N[C@@H](CC(N)=O)C(=O)N[C@@H](CC(C)C)C(=O)N[C@@H](CCCCN)C(=O)N[C@@H](CCCNC(=N)N)C(=O)N[C@@H](CC(C)C)C(=O)N[C@@H](C)C(=O)N[C@@H](C)C(=O)N[C@@H](CC(C)C)C(=O)N[C@@H](C)C(=O)N[C@@H](CCCCN)C(=O)N[C@@H](CCCCN)C(=O)N[C@H](C(=O)N[C@@H](CC(C)C)C(N)=O)[C@@H](C)CC [R5]	27.1833	-0.4192	–
CC[C@H](C)[C@H](N)C(=O)N[C@@H](CCCNC(=N)N)C(=O)N[C@@H](CC(C)C)C(=O)N[C@@H](CCCCN)C(=O)N[C@@H](C)C(=O)N[C@@H](CC(C)C)C(=O)N[C@@H](C)C(=O)N[C@@H](C)C(=O)N[C@@H](CC(C)C)C(=O)N[C@@H](C)C(=O)N[C@@H](CCCCN)C(=O)N[C@@H](CCCCN)C(=O)N[C@H](C(=O)N[C@@H](CC(C)C)C(N)=O)[C@@H](C)CC [R2]	40.227	6.823	–
CC[C@H](C)[C@H](N)C(=O)N[C@@H](CC(N)=O)C(=O)N[C@@H](CC(C)C)C(=O)N[C@@H](CCCCN)C(=O)N[C@@H](C)C(=O)NCC(=O)N[C@@H](C)C(=O)N[C@@H](C)C(=O)N[C@@H](CC(C)C)C(=O)N[C@@H](C)C(=O)N[C@@H](CCCCN)C(=O)N[C@@H](CCCCN)C(=O)N[C@H](C(=O)N[C@@H](CC(C)C)C(N)=O)[C@@H](C)CC [G6]	27.1038	3.256	–
CC[C@H](C)[C@H](N)C(=O)N[C@@H](CC(N)=O)C(=O)N[C@@H](CC(C)C)C(=O)N[C@@H](CCCCN)C(=O)N[C@@H](C)C(=O)N[C@@H](CC(C)C)C(=O)N[C@@H](C)C(=O)N[C@@H](C)C(=O)N[C@@H](CCC(=O)O)C(=O)N[C@@H](C)C(=O)N[C@@H](CCCCN)C(=O)N[C@@H](CCCCN)C(=O)N[C@H](C(=O)N[C@@H](CC(C)C)C(N)=O)[C@@H](C)CC [E9]	4.314	0.4268	–
CC[C@H](C)[C@H](N)C(=O)N[C@@H](CC(N)=O)C(=O)N[C@@H](CC(C)C)C(=O)N[C@@H](CCCCN)C(=O)N[C@@H](C)C(=O)N[C@@H](CC(C)C)C(=O)N[C@@H](CO)C(=O)N[C@@H](C)C(=O)N[C@@H](CC(C)C)C(=O)N[C@@H](C)C(=O)N[C@@H](CCCCN)C(=O)N[C@@H](CCCCN)C(=O)N[C@H](C(=O)N[C@@H](CC(C)C)C(N)=O)[C@@H](C)CC [S7]	34.1343	-4.112	–
CC[C@H](C)[C@H](N)C(=O)N[C@@H](CC(N)=O)C(=O)N[C@@H](CC(C)C)C(=O)N[C@@H](CCCCN)C(=O)N[C@@H](C)C(=O)N[C@@H](CC(C)C)C(=O)N[C@@H](C)C(=O)N[C@@H](C)C(=O)N[C@@H](CCCNC(=N)N)C(=O)N[C@@H](C)C(=O)N[C@@H](CCCCN)C(=O)N[C@@H](CCCCN)C(=O)N[C@H](C(=O)N[C@@H](CC(C)C)C(N)=O)[C@@H](C)CC [R9]	12.7524	5.887	–
CC[C@H](C)[C@H](N)C(=O)N[C@@H](CC(N)=O)C(=O)N[C@@H](CC(C)C)C(=O)N[C@@H](CCCCN)C(=O)N[C@@H](C)C(=O)N[C@@H](CC(C)C)C(=O)N[C@@H](C)C(=O)N[C@@H](C)C(=O)N[C@@H](CC(C)C)C(=O)N[C@@H](C)C(=O)N[C@@H](CCCCN)C(=O)N[C@H](C(=O)N[C@H](C(=O)N[C@@H](CC(C)C)C(N)=O)[C@@H](C)CC)C(C)C [V12]	51.0657	18.2596	–
CC[C@H](C)[C@H](N)C(=O)N[C@H](C(=O)N[C@@H](CC(C)C)C(=O)N[C@@H](CCCCN)C(=O)N[C@@H](C)C(=O)N[C@@H](CC(C)C)C(=O)N[C@@H](C)C(=O)N[C@@H](C)C(=O)N[C@@H](CC(C)C)C(=O)N[C@@H](C)C(=O)N[C@@H](CCCCN)C(=O)N[C@@H](CCCCN)C(=O)N[C@H](C(=O)N[C@@H](CC(C)C)C(N)=O)[C@@H](C)CC)[C@@H](C)O [T2]	59.8803	20.7916	–
CC[C@H](C)[C@H](N)C(=O)N[C@@H](CC(N)=O)C(=O)N[C@@H](CC(C)C)C(=O)N[C@@H](CCCCN)C(=O)N[C@@H](Cc1c[nH]c2ccccc12)C(=O)N[C@@H](CC(C)C)C(=O)N[C@@H](C)C(=O)N[C@@H](C)C(=O)N[C@@H](CC(C)C)C(=O)N[C@@H](C)C(=O)N[C@@H](CCCCN)C(=O)N[C@@H](CCCCN)C(=O)N[C@H](C(=O)N[C@@H](CC(C)C)C(N)=O)[C@@H](C)CC [W5]	97.3063	88.7179	75.0546
CC[C@H](C)[C@H](N)C(=O)N[C@@H](CC(N)=O)C(=O)N[C@@H](CC(C)C)C(=O)N[C@@H](CCCCN)C(=O)N[C@@H](CC(C)C)C(=O)N[C@@H](CC(C)C)C(=O)N[C@@H](C)C(=O)N[C@@H](C)C(=O)N[C@@H](CC(C)C)C(=O)N[C@@H](C)C(=O)N[C@@H](CCCCN)C(=O)N[C@@H](CCCCN)C(=O)N[C@H](C(=O)N[C@@H](CC(C)C)C(N)=O)[C@@H](C)CC [L5]	46.6396	25.5295	–
CC[C@H](C)[C@H](N)C(=O)N[C@@H](CC(N)=O)C(=O)N[C@@H](CC(C)C)C(=O)N[C@@H](CCCCN)C(=O)N[C@@H](C)C(=O)N[C@@H](CC(C)C)C(=O)N[C@@H](C)C(=O)N[C@@H](C)C(=O)N[C@@H](CC(C)C)C(=O)N[C@@H](C)C(=O)N[C@@H](CCCCN)C(=O)N[C@@H](CCCCN)C(=O)N[C@@H](CCC(N)=O)C(=O)N[C@@H](CC(C)C)C(N)=O [Q13]	9.2166	-1.132	–
